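Five concentrations, 48 hours, 96-well plates. The concentration for 50% growth inhibition is given as GI50. Definition used: TGI = concentration required for complete inhibition of growth.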
How the values were obtained:
Assay in all cases: NCI anticancer screen, dose series, 48 h
[1] = tested on: OVCAR-8 ovarian
[2] = tested on: OVCAR-5 ovarian
[3] = tested on: NCI-H23 lung
[4] = tested on: OVCAR-3 ovarian
[5] = tested on: MDA-MB-231 breast
[6] = tested on: MALME-3M melanoma
[7] = tested on: SR leukemia
[8] = tested on: HS 578T breast
[9] = tested on: NCI-H460 lung
[10] = tested on: SF-295 CNS
[11] = tested on: COLO 205 colon
[12] = tested on: HCT-15 colon
[13] = tested on: HL-60(TB) leukemia
[14] = tested on: MDA-MB-468 breast
[15] = tested on: UO-31 renal
[16] = tested on: BT-549 breast
[17] = tested on: MOLT-4 leukemia
[18] = tested on: CAKI-1 renal
[19] = tested on: LOX IMVI melanoma
[20] = tested on: SK-MEL-5 melanoma
[21] = tested on: KM12 colon
[22] = tested on: HOP-62 NSCLC
[23] = tested on: DU-145 prostate
[24] = tested on: A498 renal
[25] = tested on: SF-539 CNS
[26] = tested on: UACC-257 melanoma
[27] = tested on: SNB-75 CNS
[28] = tested on: TK-10 renal
[29] = tested on: HOP-92 NSCLC
[30] = tested on: T-47D breast
[31] = tested on: MDA-MB-435
[32] = tested on: SF-268 CNS
[33] = tested on: MCF7 breast
[34] = tested on: EKVX NSCLC
[35] = tested on: K-562 leukemia
[36] = tested on: 786-0 renal
[37] = tested on: RXF 393 renal
[38] = tested on: NCI-H226 lung
[39] = tested on: M14 melanoma
[40] = tested on: OVCAR-4 ovarian
[41] = tested on: SNB-19 CNS
[42] = tested on: HCC-2998 colon
[43] = tested on: SW-620 colon
[44] = tested on: PC-3 prostate
[45] = tested on: UACC-62 melanoma
[46] = tested on: A549 NSCLC
[47] = tested on: HCT-116 colon
[48] = tested on: U251 CNS
[49] = tested on: RPMI-8226 leukemia
[50] = tested on: SK-MEL-28 melanoma
[51] = tested on: HT29 colon
[52] = tested on: SK-OV-3 ovarian
[53] = tested on: ACHN renal
[54] = tested on: IGROV1 ovarian
[55] = tested on: SN12C renal
[56] = tested on: NCI-H522 lung
[57] = tested on: CCRF-CEM leukemia

SMILES: CC(C)Sc1nc(NCCc2c[nH]c3ccccc23)c(C#N)c(-c2ccc(F)cc2)n1
- GI50 [1]: 11.6 µM
- TGI [1]: 26.1 µM
- GI50 [2]: 12.6 µM
- TGI [2]: 25.1 µM
- GI50 [3]: 14.3 µM
- TGI [3]: 28.3 µM
- GI50 [4]: 13.3 µM
- TGI [4]: 27.7 µM
- GI50 [5]: 9.08 µM
- TGI [5]: 22.1 µM
- GI50 [6]: 14.1 µM
- TGI [6]: 27.2 µM
- GI50 [7]: 2.92 µM
- TGI [7]: 28.7 µM
- GI50 [8]: 10.2 µM
- TGI [8]: 43.4 µM
- GI50 [9]: 4.25 µM
- TGI [9]: 15.1 µM
- GI50 [10]: 12 µM
- TGI [10]: 25.6 µM
- GI50 [11]: 7.98 µM
- TGI [11]: 20.7 µM
- GI50 [12]: 3.74 µM
- TGI [12]: 14.7 µM
- GI50 [13]: 11.4 µM
- TGI [13]: 54.5 µM
- GI50 [14]: 3.21 µM
- TGI [14]: 12 µM
- GI50 [15]: 11.6 µM
- TGI [15]: 24.1 µM
- GI50 [16]: 11.7 µM
- TGI [16]: 25 µM
- GI50 [17]: 6.25 µM
- TGI [17]: 39.8 µM
- GI50 [18]: 10.1 µM
- TGI [18]: 22.2 µM
- GI50 [19]: 3.65 µM
- TGI [19]: 12.8 µM
- GI50 [20]: 6.05 µM
- TGI [20]: 18.6 µM
- GI50 [21]: 4.92 µM
- TGI [21]: 17.9 µM
- GI50 [22]: 1.97 µM
- TGI [22]: 4.12 µM
- GI50 [23]: 12 µM
- TGI [23]: 27 µM
- GI50 [24]: 16.4 µM
- TGI [24]: 32.2 µM
- GI50 [25]: 10.3 µM
- TGI [25]: 23.6 µM
- GI50 [26]: 15.4 µM
- TGI [26]: 32.1 µM
- GI50 [27]: 13.6 µM
- TGI [27]: 47.2 µM
- GI50 [28]: 17.4 µM
- TGI [28]: 32.4 µM
- GI50 [29]: 13.1 µM
- TGI [29]: 30.1 µM
- GI50 [30]: 4.82 µM
- TGI [30]: 17.3 µM
- GI50 [31]: 13.4 µM
- TGI [31]: 26.8 µM
- GI50 [32]: 12.8 µM
- TGI [32]: 42.2 µM
- GI50 [33]: 5.42 µM
- TGI [33]: 18.8 µM
- GI50 [34]: 11.4 µM
- TGI [34]: 24.5 µM
- GI50 [35]: 4.87 µM
- TGI [35]: > 100 µM
- GI50 [36]: 10.6 µM
- TGI [36]: 22.7 µM
- GI50 [37]: 4.32 µM
- TGI [37]: 16.5 µM
- GI50 [38]: 9.18 µM
- TGI [38]: 21.9 µM
- GI50 [39]: 9.86 µM
- TGI [39]: 23.9 µM
- GI50 [40]: 11.4 µM
- TGI [40]: 28.8 µM
- GI50 [41]: 14.9 µM
- TGI [41]: 31 µM
- GI50 [42]: 7.67 µM
- TGI [42]: 20.2 µM
- GI50 [43]: 7.84 µM
- TGI [43]: 21.1 µM
- GI50 [44]: 5.38 µM
- TGI [44]: 40.7 µM
- GI50 [45]: 12.9 µM
- TGI [45]: 26.6 µM
- GI50 [46]: 12.7 µM
- TGI [46]: 26.4 µM
- GI50 [47]: 3.75 µM
- TGI [47]: 14.1 µM
- GI50 [48]: 7.65 µM
- TGI [48]: 20.2 µM
- GI50 [49]: 6.7 µM
- TGI [49]: 49.9 µM
- GI50 [50]: 12.7 µM
- TGI [50]: 27.1 µM
- GI50 [51]: 4.61 µM
- TGI [51]: 16 µM
- GI50 [52]: 17.2 µM
- TGI [52]: 49.3 µM
- GI50 [53]: 11.1 µM
- TGI [53]: 23.1 µM
- GI50 [54]: 12.3 µM
- TGI [54]: 26.3 µM
- GI50 [55]: 12.5 µM
- TGI [55]: 25.1 µM
- GI50 [56]: 12.5 µM
- TGI [56]: 26 µM
- GI50 [57]: 6.34 µM
- TGI [57]: 65.6 µM

From PubChem BioAssay (NCI)
